Measured values from US9464044B2, “Compound having ability to inhibit 11Beta-HSD1 enzyme or pharmaceutically acceptable salt thereof, method for producing same, and pharmaceutical composition containing same as active ingredient” (AHN-GOOK PHARMACEUTICAL CO., LTD., priority 2012, dated 2016).
pIC50: −log10 of the molar value.

Target: 11β-HSD1 (Homo sapiens (Human), UniProt P28845)
Assay: 11β-HSD1 inhibiting activity, HTRF assay with human microsomal fractions
Type: biochemical
Conditions: 160 nM cortisone, 200 μM NADPH, 2 h at 37° C.
Procedure: The inhibiting activity of 11β-HSD1 derived from microsomal fractions was measured using the HTRF assay (62CO2PEB, Cisbio). […] Europium (Eu^3+) cryptate and XL665-conjugated cortisol were then added to each well and incubated for an additional 2 h at room temperature. The Cortisol concentration was calculated u sing a calibration curve. The IC50 values were calculated from dose response curves using GraphPad Prism software.

11β-HSD1, sequence (P28845 whole entry): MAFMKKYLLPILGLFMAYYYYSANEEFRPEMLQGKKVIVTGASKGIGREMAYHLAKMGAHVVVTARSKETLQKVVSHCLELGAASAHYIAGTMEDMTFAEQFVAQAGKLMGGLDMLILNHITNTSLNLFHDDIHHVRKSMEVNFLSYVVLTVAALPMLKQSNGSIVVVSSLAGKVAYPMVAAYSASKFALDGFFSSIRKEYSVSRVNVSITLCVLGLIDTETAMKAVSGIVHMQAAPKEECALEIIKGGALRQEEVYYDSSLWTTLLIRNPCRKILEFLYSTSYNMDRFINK

| SMILES | pIC50 |
| --- | --- |
| Cc1c(Cl)cccc1S(=O)(=O)NCC1(C(=O)NC2C3CC4CC(C3)CC2C4)CC1 (centres unmarked) [Example 1, N-(adamantan-2-yl)-1-[(3-chloro-2-methylbenzenesulfonylamino)methyl]cyclopropanecarboxamide] | 7.85 |
| O=C(NC1C2CC3CC1CC(O)(C3)C2)C1(CNS(=O)(=O)c2ccccc2F)CC1 (centres unmarked) [Example 2, 1-[(2-fluoro-benzenesulfonylamino)methyl]-N-(5-hydroxyadamantan-2-yl)cyclopropanecarboxamide] | 7.58 |
| Cc1c(Cl)cccc1S(=O)(=O)NCC1(C(=O)NC2C3CC4CC2CC(C(N)=O)(C4)C3)CC1 (centres unmarked) [Example 5, E-4-[1-((3-chloro-2-methyl-benzenesulfonylamino)methyl)cyclopropanecarboxamido]-adamantan-1-carboxylic acid amide] | 8.57 |
| NC(=O)C12CC3CC(C1)C(NC(=O)C1(CNS(=O)(=O)c4cccc(Cl)c4)CC1)C(C3)C2 (centres unmarked) [Example 7, E-4-[1-((3-chloro-benzenesulfonylamino)methyl)cyclopropanecarboxamido]-adamantan-1-carboxylic acid amide] | 8.59 |
| NC(=O)C12CC3CC(C1)C(NC(=O)C1(CNS(=O)(=O)c4cc(F)cc(F)c4)CC1)C(C3)C2 (centres unmarked) [Example 9, E-4-[1-((3,5-difluoro-benzenesulfonylamino)methyl)cyclopropanecarboxamido]-adamantan-1-carboxylic acid amide] | 6.22 |
| Cc1cccc(F)c1S(=O)(=O)NCC1(C(=O)NC2C3CC4CC2CC(C(N)=O)(C4)C3)CC1 (centres unmarked) [Example 10, E-4-[1-((2-fluoro-6-methyl-benzenesulfonylamino)methyl)cyclopropanecarboxamido]-adamantan-1-carboxylic acid amide] | 8.60 |
| NC(=O)C12CC3CC(C1)C(NC(=O)C1(CNS(=O)(=O)c4cccc(F)c4F)CC1)C(C3)C2 (centres unmarked) [Example 11, E-4-[1-((2,3-difluoro-benzenesulfonylamino)methyl)cyclopropanecarboxamido]-adamantan-1-carboxylic acid amide] | 7.98 |
| Cc1cccc(F)c1S(=O)(=O)N(C)CC1(C(=O)NC2C3CC4CC2CC(C(N)=O)(C4)C3)CC1 (centres unmarked) [Example 13, E-4-[1-((2-fluoro-N,6-dimethyl-benzenesulfonylamino)methyl)cyclopropanecarboxamido]-adamantan-1-carboxylic acid amide] | 8.55 |
| Cc1cc(S(=O)(=O)NCC2(C(=O)NC3C4CC5CC3CC(C(N)=O)(C5)C4)CC2)c(Cl)cc1Cl (centres unmarked) [Example 14, E-4-[1-((2,4-dichloro-5-methyl-benzenesulfonylamino)methyl)cyclopropanecarboxamido]-adamantan-1-carboxylic acid amide] | 7.88 |
| Cc1cc(S(=O)(=O)NCC2(C(=O)NC3C4CC5CC3CC(C(N)=O)(C5)C4)CC2)c(F)cc1Cl (centres unmarked) [Example 15, E-4-[1-((4-chloro-2-fluoro-5-methyl-benzenesulfonylamino)methyl)cyclopropanecarboxamido]-adamantan-1-carboxylic acid amide] | 7.55 |
| NC(=O)C12CC3CC(C1)C(NC(=O)C1(CNS(=O)(=O)c4cc(Cl)c(Cl)cc4F)CC1)C(C3)C2 (centres unmarked) [Example 16, E-4-[1-((4,5-dichloro-2-fluoro-benzenesulfonylamino)methyl)cyclopropanecarboxamido]-adamantan-1-carboxylic acid amide] | 8.30 |
| NC(=O)C12CC3CC(C1)C(NC(=O)C1(CNS(=O)(=O)c4ccco4)CC1)C(C3)C2 (centres unmarked) [Example 17, E-4-[1-((furan-2-sulfonylamino)methyl)cyclopropanecarboxamido]-adamantan-1-carboxylic acid amide] | 6.88 |
| NC(=O)C12CC3CC(C1)C(NC(=O)C1(CNS(=O)(=O)c4cc(Cl)cc(Cl)c4)CC1)C(C3)C2 (centres unmarked) [Example 18] | 7.62 |
| NC(=O)C12CC3CC(C1)C(NC(=O)C1(CNS(=O)(=O)c4ccc(F)cc4C(F)(F)F)CC1)C(C3)C2 (centres unmarked) [Example 20, E-4-[1-((2-(trifluoromethyl)-4-fluoro-benzenesulfonylamino)methyl)cyclopropanecarboxamido]-adamantan-1-carboxylic acid amide] | 6.99 |

Further lines, results first:

| pIC50 | SMILES |
| --- | --- |
| 7.51 | NC(=O)C12CC3CC(C1)C(NC(=O)C1(CNS(=O)(=O)c4ccc(F)c(F)c4)CC1)C(C3)C2 (centres unmarked) [Example 21, E-4-[1-((3,4-difluoro-benzenesulfonylamino)methyl)cyclopropanecarboxamido]-adamantan-1-carboxylic acid amide] |
| 8.02 | NC(=O)C12CC3CC(C1)C(NC(=O)C1(CNC(=O)c4ccc(F)c(F)c4)CC1)C(C3)C2 (centres unmarked) [Example 25] |
| 8.92 | Cn1ccc2cc(S(=O)(=O)NCC3(C(=O)NC4C5CC6CC4CC(C(N)=O)(C6)C5)CC3)ccc21 (centres unmarked) [Example 26, E-4-[1-((1-methyl-1H-indole-5-sulfonylamino)methyl)cyclopropanecarboxamido]-adamantan-1-carboxylic acid amide] |
| 8.92 | CN(CC1(C(=O)NC23CC4CC(CC(C4)C2)C3)CC1)S(=O)(=O)c1ccccc1F [Example 31, N-(adamantan-1-yl)-1-((2-fluoro-N-methylbenzenesulfonylamino)methyl)cyclopropanecarboxamido] |
| 8.85 | CCN(CC1(C(=O)NC2C3CC4CC2CC(C(N)=O)(C4)C3)CC1)S(=O)(=O)c1ccccc1F (centres unmarked) [Example 32, E-4-[1-((N-ethyl-fluoro-benzenesulfonylamino)methyl)cyclopropanecarboxamido]-adamantan-1-carboxylic acid amide] |
| 8.82 | O=C(O)CC[C@]12C[C@@H]3C[C@H](C1)[C@@H](NC(=O)C1(CNS(=O)(=O)c4ccccc4F)CC1)[C@@H](C3)C2 [Example 33, E-3-(4-(1((2-fluoro-benzenesulfonylamino)methyl)cyclopropanecarboxamido)adamantan-1-yl)propanoic acid] |
| 7.52 | NC(=O)CCC12CC3CC(C1)C(NC(=O)C1(CNS(=O)(=O)c4ccccc4F)CC1)C(C3)C2 (centres unmarked) [Example 34, E-N-(5-(3-amino-3-oxopropyl)adamantan-2-yl)-1-((2-fluoro-benzenesulfonylamino)methyl)cyclopropanecarboxamide] |
| 8.77 | Cc1cccc(F)c1S(=O)(=O)NC1(C(=O)NC2C3CC4CC2CC(C(N)=O)(C4)C3)CC1 (centres unmarked) [Example 40, E-4-[1-(2-fluoro-6-methyl-benzenesulfonylamino)cyclopropanecarboxamido]-adamantan-1-carboxylic acid amide] |
| 8.00 | Cc1c(Cl)cccc1S(=O)(=O)NC1(C(=O)NC2C3CC4CC2CC(C(N)=O)(C4)C3)CC1 (centres unmarked) [Example 41, E-4-[1-(3-chloro-2-methyl-benzenesulfonylamino)cyclopropanecarboxamido]-adamantan-1-carboxylic acid amide] |
| 8.19 | NC(=O)C12CC3CC(C1)C(NC(=O)C1(NS(=O)(=O)c4ccc(F)cc4)CC1)C(C3)C2 (centres unmarked) [Example 42, E-4-[1-(4-fluoro-benzenesulfonylamino)cyclopropanecarboxamido]-adamantan-1-carboxylic acid amide] |
| 7.53 | Cc1cc(S(=O)(=O)NC2(C(=O)NC3C4CC5CC3CC(C(N)=O)(C5)C4)CC2)c(Cl)cc1Cl (centres unmarked) [Example 43, E-4-[1-(2,4-dichloro-5-methyl-benzenesulfonylamino)cyclopropanecarboxamido]-adamantan-1-carboxylic acid amide] |
| 7.10 | NC(=O)C12CC3CC(C1)C(NC(=O)C1(NS(=O)(=O)c4ccc(F)cc4F)CC1)C(C3)C2 (centres unmarked) [Example 44] |
